These results are taken from patent US20240327459A1, “PEPTIDE FRAGMENTS FOR TREATMENT OF DIABETES” (Follicum AB, priority 2018, published 2024).

“Also recorded” adds a separate entry of the source. Bounds are passed on as bounds.

In test [1] the test system is INS-1 β-cells. Nature of the test: Insulin secretion from INS-1 cells, insulin ELISA (Examples 8-11, 20). The format is cell-based, rat. The protocol:
Materials and methods: Rat INS-1 β-cells (passages 60-70) were cultured at 37° C. and 5% CO2 in cRPMI media (RPMI 1640 supplemented with 10% fetal bovine serum, 50 IU/mL penicillin, 50 mg/L streptomycin, 10 mM HEPES, 2 mM L-glutamine, 1 mM sodium pyruvate, and 50 μM beta-mercaptoethanol) unless otherwise stated. INS-1 cells were seeded in 96-well plates (2×10^3 cells/well) in cRPMI medium and following overnight incubation, the cells were washed in PBS before pre-incubation for 120 min at 37° C. in Krebs-Ringer bicarbonate buffer, pH 7.4, supplemented with 10 mM HEPES, 0.1% bovine serum albumin and 2.8 mM glucose. Following pre-incubation, the buffer was exchanged with fresh Krebs-Ringer buffer as described above and supplemented with specific glucose concentrations and peptides for the individual experiments as described below. Immediately after 60 minutes incubation at 37° C., an aliquot of the buffer was removed and frozen for subsequent insulin ELIZA assay.
Insulin release from INS-1 cells were measured following exposure to increasing concentrations of FOL-014 and compared with the stimulatory effect of GLP-1 and untreated control during high glucose concentration (16.7 mM). […] At 6 nM or higher, FOL-014 triggered insulin release within the same range as 100 nM GLP-1. At concentrations ranging from 0.6-60 nM, insulin secretion increased in a linear fashion in relation to increasing FOL-014 concentrations.
Insulin release from INS-1 cells was measured following exposure to 60 nM FOL-014 at increasing concentrations of glucose. In untreated control samples, elevated glucose concentrations increased the insulin secretion at 11.1 mM glucose or higher. […] (FIG. 6).
Insulin secretion from INS-1 cells was measured following exposure to FOL-005, FOL-014, GLP-1 or combinations of those, expressed as percentage of untreated control. […] The experiments were performed in the presence of 16.7 mM glucose (FIG. 7).
Novel peptide analogues, derived from either FOL-005 or FOL-014 were tested concerning their ability to induce insulin secretion in two separate INS-1 cell lines in the presence of 16.7 mM glucose. FOL-005, FOL-014 and GLP-1 as well as a high glucose (16.7 mM) and a low glucose (2.8 mM) control (not shown) was included in each experiment and the peptide concentration was 100 nM. In order to correct for the variance between experiments, all values were normalized to, and expressed as percentage of the average value of the high glucose control in the individual experiments. The analogues were subsequently ranked according to performance (FIGS. 11A and 11B).
Insulin secretion from INS-1 cells was measured following exposure to FOL-056, GLP-1 or a combination of those, expressed as percentage of untreated control. […] The experiments were performed in the presence of 16.7 mM glucose (FIG. 15).
In general terms: In an ELISA, binding on a coated surface is turned into a signal by an enzyme label.

Test [2] concerns INS-1E cells. Put plainly: Insulin secreting capacity after 72 hours of glucotoxic conditions (Examples 19, 22). The format is cell-based, rat. The conditions noted are these: Example 19, 20 mM glucose 72 hours with peptide, then 16.7 mM glucose 1 h. The protocol: To investigate the β-cell protective effect of FOL-056, we subjected INS-1E to cytotoxic levels of glucose for 72 hours. Rat INS-1E cells were seeded in 96-well plates (2×10^3 cells/well) in cRPMI medium. Following 72 hours of incubation, the medium was changed to RPMI containing 20 mM glucose with or without FOL-056 or FOL-014 and were cultured at 37° C. during an additional 72 hours to induce glucotoxicity. RPMI containing 5 mM glucose was included as a low glucose control. Following 72 hours, the medium was removed and the INS-1E cells were equilibrated in Krebs-Ringer bicarbonate buffer (KREB), pH 7.4, (supplemented with 10 mM HEPES, 0.1% bovine serum albumin and 2.8 mM glucose) for 2 hours. After equilibration, the buffer was changed and the INS-1E cells were incubated in KREBs containing 16.7 mM glucose […] during 1 h. Immediately after incubation, an aliquot of the buffer was removed and frozen for subsequent assay of insulin content.
To investigate the β-cell protective effect of several novel peptide fragments derived from FOL-005 and FOL-014, INS-1 cells were subjected to cytotoxic levels of glucose for 72 hours. […] In order to correct for the variance between experiments, all values were normalized to, and expressed as percentage of the average value of the high glucose control in the individual experiments. […]

The subject of test [3] is human pancreatic β-cell line 1.2B4. Nature of the test: Insulin secretion from 1.2B4 human β-cells. It is filed as cell-based. The conditions noted are these: 100 nM peptide, 16.7 mM glucose, 60 minutes. The protocol:
In order to test the effect of FOL-014 and FOL-056 in human cells, the human pancreatic β-cell line 1.2B4 were cultured at 37° C. and 5% CO2 in RPMI 1640 supplemented with 10% fetal bovine serum, 50 IU/mL penicillin, 50 mg/L streptomycin, 1 mM L-glutamine. 1.2B4 cells were seeded in 24-well plates in RPMI medium and following overnight incubation, the medium was removed before pre-incubation for 40 min at 37° C. in Krebs-Ringer bicarbonate buffer, pH 7.4, supplemented with 10 mM HEPES, 0.1% bovine serum albumin and 1.0 mM glucose. Following pre-incubation, the buffer was exchanged with fresh Krebs-Ringer buffer as described above and supplemented with specific glucose concentrations, 1 mM or 16.7 mM. FOL-014, FOL-056 or Liraglutide was added at a concentration of 100 nM in the presence of 16.7 mM glucose. Immediately after 60 minutes incubation at 37° C., an aliquot of the buffer was removed and frozen for subsequent insulin ELISA assay. (FIG. 18)

For test [4], the system named is db/db mice. Put plainly: HbA1c in db/db mice after 4 weeks of dosing. It is filed as in vivo, mouse. The conditions noted are these: 100 nmol/kg subcutaneously, 5 days per week for 4 weeks, vs PBS control. The protocol: To investigate the long-term effect of FOL-014 and FOL-056 in diabetic mice, db/db mice were dosed with 100 nmol/kg peptide subcutaneously, 5 days per week for 4 weeks. Control mice were injected with PBS. After 4 weeks of treatment the mice were terminated and 25 μl whole blood was immediately frozen for subsequent HbA1c analysis. (FIG. 21).

In the case of “KPLAEIDSIELSYGIK (MISC_FEATURE - peptide, FOL-014)”, the “insulin secretion at increasing glucose concentrations” value in test [1] (60 nM peptide, glucose 5.5 mM or higher, vs untreated control cells) is “increased significantly in a glucose dependent fashion already from 5.5 mM glucose; also recorded: significantly higher”. Moreover, in test [1] (16.7 mM glucose), the “concentration range in which insulin secretion increased in a linear fashion” value was 0.6 to 60 nM and the “concentration triggering insulin release within the same range as 100 nM GLP-1” value is reported as no less than 6 nM. For the same sequence, the insulin release result in test [1] (all concentrations tested, 16.7 mM glucose, vs untreated control) is “elicited significantly higher insulin release as compared with the untreated control; also recorded: significant increase in insulin secretion for all concentrations tested”. The insulin secretion result in test [1] (concentrations ≥600 nM, 16.7 mM glucose) is given as “did not increase the insulin secretion; also recorded: less pronounced effect on insulin secretion”. In test [2], the “insulin secreting ability after glucotoxic conditions” value is “significantly improved the insulin secreting ability of the β-cells as compared with high glucose media alone”. In addition, the insulin secretion entry in test [3] was “increase the insulin secretion capacity in 1.2B4 human β-cells; also recorded: significantly increased the insulin secretion as compared with cells treated with an un-supplemented high glucose buffer”. Besides, the HbA1c result in test [4] is given as “reduce the HbA1c in db/db mice as compared with the untreated control group; also recorded: significantly lower HbA1c”.
